Assay results published in patent publication US20020107193A1, “Therapeutic uses for IP3 receptor-mediated calcium channel modulators” (priority 2000, published 2002).

Key:
CREB = test: EMSA of CREB binding activity in cultured primary cortical neurons; format: cell-based, rat
Description: Cerebral cortices were removed from embryonic day 18 Sprague-Dawley rats (Harlan, Indianapolis, Ind.). Cells were dissociated as described previously (Mattson et al., 1995, J. Neurochem. 65:1740-1751.) and were seeded into polyethyleneimine-coated 60 mm culture dishes containing Eagle's Minimum Essential Medium supplemented with 26 mM NaHCO3, 40 mM glucose, 20 mM KCl, 1 mM sodium pyruvate, 10% (v/v) heat-inactivated fetal bovine serum (Sigma, St. Louis, Mo.), and 0.001% gentamycin sulfate. After a 3-5 h incubation period to allow for cell attachment, the medium was replaced with 2 ml of Neurobasal Medium with B27 supplements (GIBCO Life Technologies, Grand Island, N.Y.). Previous observations have shown that greater than 80% of the cells that attach in the first few hours after plating will survive longer than 7 days in Neurobasal Medium with no additional neurotrophic factors. Experimental treatments were performed on 7-to-9-day-old neuronal cultures in which there were approximately 5% contaminating glial cells.
Total cell extracts were prepared as described (Baeuerle and Baltimore, 1988, Cell 53:211-217). Briefly, cells were harvested, washed twice with ice-cold PBS and lysed for 30 min at 4° C. in Totex buffer (20 mM HEPES, pH 7.9, 350 mM NaC1, 20% glycerol, 1% NP-40, 1 mM MgC12, 0.5 mM EDTA, 0.1 mM EGTA, 5 mM DTT, 0.1% PMSF, 1% aprotinin, 4 μg/ml leupeptin). Samples were centrifuged at 14,000× g for 10 min and aliquots of supernatant were collected and stored at −70° C. until taken for assay. The protein content of the extract (supernatant) was measured by Bradford method (BIO-RAD Laboratories, Ercules, Calif., USA). […]
After 20 min at room temperature, reaction products were separated on a 7% non-denaturing polyacrylamide gel. […] Radioactivity of dried gels was detected by exposure to Kodak X-Omat film and images on the developed film were scanned into a computer using a UMAX 1200s scanner. […]
The possible involvement of endoplasmic reticulum pools of intracellular calcium regulated by IP3 receptors in controlling basal levels of NF-κB was investigated using Xestospongin C (XeC) a specific membrane permeable modulator of IP3-mediated Ca^2+release (Gafni et al., 1997, Neuron 19:723-733; Hu et al., 1999, J. Biol. Chem. 274:33995-33998), and thapsigargin (Tg), a specific inhibitor of ER calcium/ATPase (Thastrup et al., 1990, Proc. Natl. Acad. Sci. USA 87:2466-2470; Davidson and Varhol, 1995, J. Biol. Chem. 270:11731-11734.). Cultured primary cortical neurons were treated with either 1 μM XeC, 100 nM Tg or vehicle for 6 h and protein extracts were analyzed for NF-κB binding activity by EMSA electrophoresis.

[1] = system: macrophage-tropic CCR5-utilizing HIV CSF; test: p24 antigen in media of HIV-infected peripheral blood lymphocytes; format: cell-based; conditions: for p24 levels, of controls: day 2
Description: Peripheral blood lymphocytes, previously stimulated for 72 hours with PHA, were divided into 3 groups, designated T-HIV (RPMI-10 media containing 1 μM XeC and 0.1% DMSO), N-HIV (RPMI-10 media containing 0.1% DMSO) and HIV (RPMI-10 media). […] The cells were then infected with a macrophage-tropic CCR5-utilizing HIV CSF for 3 hours at 37° and then washed to remove excess virus. All groups were cultured in RPMI-10% FCS+10U/ml IL-2. Referring to FIGS. 7-11, cells were incubated at 37° C. in 5% CO2. At stated time points shown in the aforementioned figures, spent media was removed and replace with fresh media. The media was tested for the presence of p24 antigen as a surrogate for HIV infection and replication. […] The significance of using the CCR5 utilizing macrophage-tropic virus JR-CSF is that this is the type of virus generally transmitted sexually.

immune cell line = test: Proinflammatory cytokine production in an immune cell line; format: cell-based

## C1CCC[C@H]2CCCN3CC[C@@H](CCCCCC[C@@H]4CCCN5CC[C@@H](CC1)O[C@@H]45)O[C@@H]23 [XeC, Xestospongin C]
CREB; cortical neurons, XeC 30 min pretreatment, 100 ng/ml TNFα 6 h, FIG. 2a
  binding activity of CREB, agent alone: neither TNFα nor XeC alone affected the binding activity of CREB
CREB; cultured primary cortical neurons, 6 h, 1 μM XeC or 100 nM Tg, data not shown
  CREB binding activity: slightly augmented CREB binding activity; however, this was not statistically significant
[1]; 1 μM XeC, 0.1% DMSO, overall statement
  p24 antigen as surrogate for HIV infection and replication, relative to DMSO: inhibition
[1]; X1: XeC once 2 hours pre-infection, FIG. 7
  p24 levels, of controls: ~50%
[1]; X1: XeC once 2 hours pre-infection, day 3, FIG. 7
  p24 levels: increased to approximately control levels
[1]; X1: XeC once pre-infection, day 3, third experiment, FIG. 10
  p24 levels: reduced relative to D1 and D2
[1]; X1: XeC once pre-infection, day 4, third experiment, FIG. 10
  p24 levels: increased to near control levels
[1]; X1: XeC once pre-infection, subsequent experiment, FIG. 8
  p24 levels: no effect was seen
[1]; X2: XeC 2 hours pre-infection and 6 hours post-infection, FIG. 7
  p24 levels, of controls: approximately 80%
[1]; X2: XeC pre- and post-infection, day 3, FIG. 7
  p24 levels: increased to approximately control levels
[1]; X2: XeC pre- and post-infection, day 3, third experiment, FIG. 10
  p24 levels: reduced relative to D1 and D2
[1]; X2: XeC pre- and post-infection, day 4, FIG. 9
  p24 levels: increase to near wild-type levels
[1]; X2: XeC pre- and post-infection, day 4, third experiment, FIG. 10
  p24 levels, of the DMSO controls: approximately 50%
[1]; X2: XeC pre- and post-infection, days 2 and 3, subsequent experiment, FIG. 8
  p24 levels: greatly reduced
Immune cell line
  proinflammatory cytokine production: inhibited
